Test results reported in patent US5216175A, “Antimalarial analogs of artemisinin” (SRI International, priority 1990, dated 1993).
≈ marks a conversion by molar mass, not a printed value. Like-named read-outs stand apart in the source and are kept apart here.

What was measured:
[1] = system: P. falciparum; test: In vitro antimalarial activity / SAR data, clone not stated; type: cell-based
Excerpt: (§1) The analogs have been segregated arbitrarily here into those compounds in which the tetracyclic skeleton is intact (Table 2) and various ring-cleaved analogs (Table 3). The activities of the conventional malaria therapeutics chloroquine, mefloquine, and pyrimethamine is included for comparison.

[2] = system: P. falciparum D-6 clone; test: In vitro antimalarial activity, P. falciparum D-6 clone; type: cell-based; conditions: for IC50: Plasmodium falciparum
Excerpt: as §1

[3] = system: P. falciparum W-2 clone; test: In vitro antimalarial activity, P. falciparum W-2 clone; type: cell-based; conditions: for IC50: Plasmodium falciparum
Excerpt: as §1

[4] = Brossi et al.; cited from earlier work
[5] = Table 2, D-6 clone, drug-resistant strains of P. falciparum, read-out: IC50 D-6 clone
[6] = Table 2, D-6 clone, drawing 57 (artemisinin) = 100
[7] = Table 2, W-2 clone, drug-resistant strains of P. falciparum, read-out: IC50 W-2 clone
[8] = Table 2, W-2 clone, drawing 57 (artemisinin) = 100
[9] = Table 3, tricyclic analogs, D-6 clone
[10] = Table 3, tricyclic analogs, W-2 clone
[11] = Table 3, tricyclic analogs, D-6 clone, read-out: In vitro IC50 D-6 clone
[12] = Table 3, tricyclic analogs, W-2 clone, read-out: In vitro IC50 W-2 clone

CCC1(CC)OO[C@]23CCCC[C@H]2[C@@H](C)C(=O)O[C@@H]3O1 (relative stereo) [compound 52]
activity change by additional alkyl groups in the vicinity of the peroxy group ([1]; 24 versus 52): reduced activity substantially

CC(C)CC[C@H]1C(=O)O[C@@H]2O[C@@]3(C)CC[C@H]4[C@H](C)CC[C@@H]1[C@@]24OO3 [compound 2822]
IC50 [2, 5]: 0.00035 µg/mL (≈ 0.00103 µM)
Relative potency (D-6 clone) [2, 6]: 157
IC50 [3, 7]: 0.0005 µg/mL (≈ 0.00148 µM)
Relative potency (W-2 clone) [3, 8]: 98

CCC(=O)OCC(CC)(CC)OOC(C)(C)C [compound 4596, 2-t-Butylperoxy-2-ethylbutyl proprionate]
In vitro IC50 D-6 clone [2, 9]: Inactive
In vitro IC50 W-2 clone [3, 10]: Inactive

C[C@@H]1CC[C@H]2[C@@H](CC(=O)O)C(=O)O[C@@H]3O[C@@]4(C)CC[C@@H]1[C@]32OO4 [compound 4595]
IC50 [2, 5]: 0.83 µg/mL (≈ 2.54 µM)
Relative potency (D-6 clone) [2, 6]: 0.15
IC50 [3, 7]: 0.151 µg/mL (≈ 0.463 µM)
Relative potency (W-2 clone) [3, 8]: 0.3

C[C@H]1C(=O)O[C@@H]2OC(C)(C)OO[C@@]23CCCC[C@@H]13 (relative stereo) [compound 4582]
IC50 [2, 11]: 0.0222 µg/mL (≈ 0.0867 µM)
Relative potency (D-6 clone) [2, 9]: 20
IC50 [3, 12]: 0.0381 µg/mL (≈ 0.149 µM)
Relative potency (W-2 clone) [3, 10]: 6
activity relative to 12 ([1]; of the activity of 12 (artemisinin), clone not stated): about 20%

(-)-4ab,7a,7aa,10β-Hexahydro-3,3,7β,10a-tetramethyl-4aH,6H-trioxino[6.5-j][2]-benzopyran-6-one [compound 4591]
In vitro IC50 D-6 clone [2, 9]: 0.00965 µg/mL
Relative potency (D-6 clone) [2, 9]: 8
In vitro IC50 W-2 clone [3, 10]: 0.00971 µg/mL
Relative potency (W-2 clone) [3, 10]: 9

CC1C(=O)OC(O[Si](C)(C)C(C)(C)C)C2(OO)CCCCC12 (stereo not drawn) [compound 4581]
IC50 ([2]; read-out: In vitro IC50 D-6 clone): 3.02 µg/mL (≈ 9.13 µM)
Relative potency (D-6 clone) [2, 9]: 0
IC50 ([3]; read-out: In vitro IC50 W-2 clone): 2.89 µg/mL (≈ 8.75 µM)
Relative potency (W-2 clone) [3, 10]: 0

O=C1C[C@@H]2CCC[C@@H]3C[C@H]4OO[C@]32[C@H](O1)O4 (relative stereo) [compound 4589, Octahydro-3,11-epoxy-11H-pyrano[4.3-j]-1,2-benzodioxan-9(3H) -one]
IC50 [2, 5]: 0.129 µg/mL (≈ 0.572 µM)
Relative potency (D-6 clone) [2, 6]: 2
IC50 [3, 7]: 0.0887 µg/mL (≈ 0.392 µM)
Relative potency (W-2 clone) [3, 8]: 2

CCO[C@H]1O[C@@H]2O[C@@]3(C)CC[C@H]4[C@H](C)CC[C@@H]([C@H]1C)[C@@]24OO3 [arteether]
potency relative to artemisinin (12) [4]: higher potency

C[C@@H]1CC[C@H]2[C@@H](C)C(=O)O[C@@H]3OC(C)(C)OO[C@@]32C1 [compound 2816]
IC50 [2, 11]: 0.00129 µg/mL (≈ 0.00477 µM)
Relative potency (D-6 clone) [2, 9]: 108
IC50 [3, 12]: 0.00146 µg/mL (≈ 0.0054 µM)
Relative potency (W-2 clone) [3, 10]: 75
